Key:
[1] = refractive index (other wavelength) (dimensionless); wn = mass fraction of the nth substance listed; conditions: 298.15 K, 101.3 kPa, Liquid
[2] = refractive index (other wavelength) (dimensionless); conditions: 298.15 K, 101.3 kPa, Liquid

C1CCCCC1 [cyclohexane] + CO
refractive index, [1]
Conditions	w1 = 0.1	w1 = 0.2004	w1 = 0.2999
Wavelength=670 nm	1.33196	1.34128	1.34987
Wavelength=925 nm	1.32811	1.33737	1.34602

CO [methanol]
[2]
Conditions	refractive index
Wavelength=670 nm	1.32603
Wavelength=925 nm	1.32235

C1CCCCC1 [cyclohexane]
[2]
Conditions	refractive index
Wavelength=670 nm	1.42253
Wavelength=925 nm	1.41832

Cc1ccccc1 [toluene] + CO
refractive index, [1]
Conditions	w1 = 0.1001	w1 = 0.1994	w1 = 0.3001	w1 = 0.4	w1 = 0.4996	w1 = 0.6	w1 = 0.6994	w1 = 0.8001	w1 = 0.8994
Wavelength=670 nm	1.34089	1.35612	1.37219	1.38826	1.4056	1.42196	1.43865	1.45699	1.47418
Wavelength=925 nm	1.33686	1.35152	1.36718	1.38279	1.39956	1.41564	1.43182	1.44951	1.46633

C1CCCCC1 [cyclohexane] + Cc1ccccc1
refractive index, [1]
Conditions	w1 = 0.0996	w1 = 0.2002	w1 = 0.2995	w1 = 0.4003	w1 = 0.5004	w1 = 0.6002	w1 = 0.7	w1 = 0.8005	w1 = 0.9001
Wavelength=670 nm	1.48158	1.47363	1.46616	1.45883	1.45162	1.44527	1.43903	1.43327	1.42768
Wavelength=925 nm	1.47383	1.46618	1.4592	1.45229	1.44539	1.43956	1.43363	1.42825	1.42296

Cc1ccccc1 [toluene]
[2]
Conditions	refractive index
Wavelength=670 nm	1.48998
Wavelength=925 nm	1.48176
